The values below come from patent EP4800018A1, “PAN-KRAS INHIBITOR AND USE THEREOF IN MEDICINES” (Betta Pharmaceuticals Co., Ltd., priority 2023, dated 2025).

Where two headings read alike, the source gives them in different places.

Assay type in all cases: cell-based
Test [1] has as its system KRAS-G12D mutant tumor cells AGS. As to the kind of experiment: Cell Proliferation Inhibition Assay (AGS), Cell-titer GLO, 96 h. Particulars: AGS cells, 96 h incubation, Cell-titer GLO, read-out: AGS(G12D). In a few lines:
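Inhibition % was derived from CellTiter-Glo luminescence (max minus measured, over max minus blank) and fitted to give IC50. Cells were KRAS-G12D AGS in low-attachment wells, treated for 96 h at 37°C.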

Test [2] has as its target T1, KRAS G12V-cRAF (Homo sapiens, UniProt P01116, G12V).
T1 construct: expressed in transfected cells
As to the kind of experiment: Cellular KRAS G12V-cRAF Binding Inhibition Assay (NanoBRET, AD293 stable cells). The following applies: 3 h incubation, read-out: NanoBRET KRAS G12V. In a few lines: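 Binding measured as BRET between NanoLuc and HaloTag-bound NanoBRET 618 ligand (added overnight) in stably expressing AD293 cells. Signals were converted to percent inhibition against max and blank wells and fitted for IC50.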
On the technique in general: In BRET a luciferase serves as donor, and the signal depends on an acceptor being close.

Test [3] deals with KRAS-G12V mutant tumor cells SW620. As to the kind of experiment: Cell Proliferation Inhibition Assay (SW620), Cell-titer GLO, 96 h. Particulars: SW620 cells, 96 h incubation, Cell-titer GLO, read-out: SW620(G12V). A digest of the protocol:
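Readout: Cell-titer GLO luminescence after 96 h at 37°C, converted to percent inhibition against 0.5% DMSO and blank controls, with IC50 from curve fit. Low-attachment SW620 cultures (1×10^3 cells/well) were dosed at 10000–0.03 nM final.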

Test [4] has as its target T2, KRAS G12D-cRAF (Homo sapiens, UniProt P01116, G12D).
T2 construct: expressed in transfected cells
As to the kind of experiment: Cellular KRAS G12D-cRAF Binding Inhibition Assay (NanoBRET, AD293 stable cells). The following applies: 3 h incubation, read-out: NanoBRET KRAS G12D. In a few lines:
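IC50 values derive from fitted % inhibition, normalised to maximum signal and medium-only blank. The read-out is NanoBRET between KRAS G12D-NanoLuc (donor) and cRAF RBD-HaloTag labelled with the 618 ligand (acceptor), in live stably transfected AD293 cells at 1×10^4/well.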

T2 sequence (P01116 1-188 isoform P01116-2 G12D): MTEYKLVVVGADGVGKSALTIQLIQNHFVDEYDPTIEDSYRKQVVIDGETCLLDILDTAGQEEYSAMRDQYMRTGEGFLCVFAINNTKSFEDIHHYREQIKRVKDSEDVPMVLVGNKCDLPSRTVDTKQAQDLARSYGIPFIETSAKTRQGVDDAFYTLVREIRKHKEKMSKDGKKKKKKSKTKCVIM
T1 sequence (P01116 1-188 isoform P01116-2 G12V): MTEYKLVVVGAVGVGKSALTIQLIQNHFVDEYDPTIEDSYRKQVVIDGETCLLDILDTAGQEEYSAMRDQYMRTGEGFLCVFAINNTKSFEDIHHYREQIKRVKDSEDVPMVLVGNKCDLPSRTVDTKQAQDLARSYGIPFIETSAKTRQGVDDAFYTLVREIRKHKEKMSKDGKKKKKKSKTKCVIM

In the case of `COC1CCN(c2cnc3c(c2)-c2c4c5cc(ccc5n2CCCOC3C)-c2csc(n2)CC(NC(=O)C2CC2C(F)F)C(=O)N2CCCC(N2)C(=O)OCC(C)(C)C4)C1` [Example 135, (1S,2S)-2-(difluoromethyl)-N-((1^5S,6^3S,4S,Z)-1^2-((R)-3-methoxypyrrolidin-1-yl)-1^5,10,10-trimethyl-5,7-dioxo-1^8, 1^9,6^1 ,6^2,6^3,6^4,6^5 ,6^6-octahydro-1^5H,1^7H-8-oxa-1(13,15)-pyrido[3',2':7,8][1,5]oxazonino[5,6-a]indola-2(4,2)-thiazola-6(1,3)-pyridazinacycloundecaphane-4-yl)cyclopropane-1-car boxamide], the IC50 is 2.2 nM in test [1], 10.6 nM in test [2], 0.7 nM in test [3] and 2.39 nM in test [4].
For `COC1CCN(c2cnc3c(c2)-c2c4c5cc(ccc5n2CCCOC3C)-c2csc(n2)CC(NC(=O)C2CC2C(F)F)C(=O)N2CCCC(N2)C(=O)OCC(C)(C)C4)C1` [Example 136, (1S,2S)-2-(difluoromethyl)-N-((1^5S,6^3S,4S,Z)-1^2-((S)-3-methoxypyrrolidin-1-yl)-1^5,10,10-trimethyl-5,7-dioxo-1^8,1^9,6^1,6^2,6^3,6^4,6^5,6^6-octahydro-1^5H,1^7H-8-oxa-1(13,15)-pyrido[3',2':7,8][1,5]oxazonino[5,6-alindola-2(4,2)-thiazola-6(1,3)-pyridazinacycloundecaphane-4-yl)cyclopropane-1-carboxamide], in that order: 5.6 nM, 19.6 nM, 1.5 nM and 4.59 nM.
Consider `CC1OCCCn2c(c3c4cc(ccc42)-c2csc(n2)CC(NC(=O)C2CC2C(F)F)C(=O)N2CCCC(N2)C(=O)OCC(C)(C)C3)-c2cc(N3CCN(C)C(C)C3)cnc21` [Example 138, (1S,2S)-2-(difluoromethyl)-N-((1^5S,6^3S,4S,Z)-1^2-((R)-3,4-dimethylpiperazin-1-yl)-1^5,10,10-trimethyl-5,7-dioxo-1^8,1^9,6^1,6^2,6^3,6^4,6^5,6^6-octahydro-1^5H,1^7H-8-oxa-1(13,15)-pyrido[3',2':7,8][1,5]oxazonino[5,6-a]indola-2(4,2)-thiazola-6(1,3)-pyridazinacycloundecaphane-4-yl)cyclopropane-1-carboxamide], for which the IC50 in test [1] (Homo sapiens, AGS, 96 h) is 1.59 nM; in test [2], 14.7 nM; in test [3] (Homo sapiens, SW-620, 96 h), 0.63 nM; in test [4] it was 3.2 nM.
For `CC1OCCCn2c(c3c4cc(ccc42)-c2csc(n2)CC(NC(=O)C2CC2C(F)F)C(=O)N2CCCC(N2)C(=O)OCC(C)(C)C3)-c2cc(N3CC(C)N(C)C(C)C3)cnc21` [Example 140, (1S,2S)-2-(difluoromethyl)-N-((1^5S,6^3S,4S,Z)-1^5,10,10-trimethyl-5,7-dioxo-1^2-((3S,5R)-3,4,5-trimethylpiperazin-1-yl)-1^8,1^9,6^1,6^2,6^3,6^4,6^5,6^6-octahydro-1^5H,1^7H-8-oxa-1(13,15)-pyrido[3',2':7,8] [1,5]oxazonino[5,6-a]indola-2(4,2)-thiazola-6(1,3)-pyridazinacycloundecaphane-4-yl)cyclopropane-1-carboxamide], in that order: 0.38 nM, 9.3 nM, 0.14 nM and 1.8 nM.
With `CC1OCCCn2c(c3c4cc(ccc42)-c2csc(n2)CC(NC(=O)C2CC2C(F)F)C(=O)N2CCCC(N2)C(=O)OCC(C)(C)C3)-c2cc(N3CC(C)N(C)C(C)C3)cnc21` [Example 142, (1S,2S)-2-(difluoromethyl)-N-((1^5S,6^3S,4S,Z)-1^5,10,10-trimethyl-5,7-dioxo-1^2-((3S,5S)-3,4,5-trimethylpiperazin-1-yl)-1^8,1^9,6^1,6^2,6^3,6^4,6^5,6^6-octahydro-1^5H,1^7H-8-oxa-1(13,15)-pyrido[3',2':7,8] [1,5]oxazonino[5,6-a]indola-2(4,2)-thiazola-6(1,3)-pyridazinacycloundecaphane-4-yl)cyclopropane-1-carboxamide], the IC50 in test [1] was 0.3 nM; in test [2] it was 5.61 nM; in test [3] it was 0.09 nM; in test [4] it was 1.88 nM.
Take `CC1OCCCn2c(c3c4cc(ccc42)-c2coc(n2)CC(NC(=O)C2CC2C(F)F)C(=O)N2CCCC(N2)C(=O)OCC(C)(C)C3)-c2cc(N3CCOCC3)cnc21` [Example 146, (1S,2S)-2-(difluoromethyl)-N-((1^5S,6^3S,4S,Z)-1^5,10,10-trimethyl-1^2-morpholino-5,7-dioxo-1^8,1^9, 6^1,6^2,6^3,6^4,6^5 6-octahydro-1^5H,1^7H-8-oxa-1(13,15)-pyrido[3',2':7,8][1,5]oxazonino[5,6-a]indola-2(4,2)-oxazola-6(1,3)-pyridazinacycloundecaphane-4-yl)cyclopropane-1-carboxamide]: the IC50 in test [1] (Homo sapiens, AGS, 96 h) was found to be 1.4 nM; in test [2], 8.52 nM; in test [3] (Homo sapiens, SW-620, 96 h) it was 0.6 nM; in test [4], 1.97 nM.
Consider `CCN1CCN(c2cnc3c(c2)-c2c4c5cc(ccc5n2CCCOC3C)-c2csc(n2)CC(NC(=O)C(C(C)C)N(C)C(=O)N2CCOCC2)C(=O)N2CCCC(N2)C(=O)OCC(C)(C)C4)CC1` [Example 149, N-((2S)-1-(((1^5S,6^3S,4S,Z)-1^2-(4-ethylpiperazin-1-yl)-1^5,10,10-trimethyl-5,7-dioxo-1^8,1^9,6^1,6^2,6^3 ,6^4,6^5,6^6-octahydro-1^5H,1^7H-8-oxa-1(13,15)-pyrido[3',2':7,8][1,5]oxazonino[5,6-a]indola-2(4,2)-thiazola-6(1,3)-pyridazinacycloundecaphane-4-yl)amino)-3-methyl-1-oxobutan-2-yl)-N-methyl morpholine-4-carboxamide], for which the IC50 in test [1] (Homo sapiens, AGS, 96 h) came out at 3.19 nM; in test [2], 10.9 nM; in test [3] (Homo sapiens, SW-620, 96 h) it was 1.09 nM; in test [4], 3.48 nM.
For `CC1OCCCn2c(c3c4cc(ccc42)-c2csc(n2)CC(NC(=O)C2CC2C(F)F)C(=O)N2CCCC(N2)C(=O)OCC(C)(C)C3)-c2cc(N3CC4CCC3CN4C)cnc21` [Example 154, (1S,2S)-2-(difluoromethyl)-N-((1^5S,6^3S,4S,Z)-1^5,10,10-trimethyl-1^2-(5-methyl-2,5-diazabicyclo[2.2.2]octan-2-yl)-5,7-dioxo-1^8,1^9,6^1,6^2,6^3,6^4,6^5,6^6-octahydro-1^5H,1^7H-8-oxa-1(13,15)-pyrido[3',2 ':7,8][1,5]oxazonino[5,6-a]indola-2(4,2)-thiazola-6(1,3)-pyridazinacycloundecaphane-4-yl)cyclo propane-1-carboxamide], in that order: 1.95 nM, 19.3 nM, 0.91 nM and 4.2 nM.
Taken in the same sequence, the figures for `CC1OCCCn2c(c3c4cc(ccc42)-c2csc(n2)CC(NC(=O)C2C(C)C2C)C(=O)N2CCCC(N2)C(=O)OCC(C)(C)C3)-c2cc(OCCN3CCOCC3)cnc21` [Example 158, (1r,2R,3S)-2,3-dimethyl-N-((1^5S,6^3S,4S,Z)-1^5,10,10-trimethyl-1^2-(2-morpholinoethoxy)-5,7-dioxo-1^8,1^9,6^1,6^26^3,6^4,6^5,6^6-octahydro-1^5H,1^7H-8-oxa-1(13,15)-pyrido[3',2':7,8][1,5]oxazonino[5,6-a]indola-2(4,2)-thiazola-6(1,3)-pyridazinacycloundecaphane-4-yl)cyclopropane-1-carboxamide] were 0.58 nM, 5.06 nM, 0.11 nM and 1.01 nM.
As for `CCN1CCN(c2cnc3c(c2)-c2c4c5cc(ccc5n2CCCOC3C)-c2csc(n2)CC(NC(=O)C2C(C)C2C)C(=O)N2CCCC(N2)C(=O)OCC(C)(C)C4)CC1` [Example 159, (1r,2R,3S)-N-((1^5S,6^3S,4S,Z)-1^2-(4-ethylpiperazin-1-yl)-1^5,10,10-trimethyl-5,7-dioxo-1^8,1^9,6^1,6^2 ,6^3,6^4,6^5,6^6-octahydro-1^5H,1^7H-8-oxa-1(13,15)-pyrido[3',2':7,8][1,5]oxazonino[5,6-a]indola-2(4, 2)-thiazola-6(1,3)-pyridazinacycloundecaphane-4-yl)-2,3-dimethylcyclopropane-1-carboxamide], the IC50 in test [1] (Homo sapiens, AGS, 96 h) was 0.21 nM; in test [2], 3.83 nM; in test [3] (Homo sapiens, SW-620, 96 h), 0.06 nM; in test [4], 0.38 nM.
Taken in the same sequence, the figures for `CCN1CCN(c2cnc3c(c2)-c2c4c5cc(ccc5n2CC(C)COC3C)-c2csc(n2)CC(NC(=O)C2CC2C(F)F)C(=O)N2CCCC(N2)C(=O)OCC(C)(C)C4)CC1` [Example 161, (1S,2S)-2-(difluoromethyl)-N-((1^5S,1^8R,6^3S,4S,Z)-1^2-(4-ethylpiperazin-1-yl)-1^5,1^8,10,10-tetramethyl-5,7-dioxo-1^8,1^9,6^1,6^2,6^3,6^4,6^5,6^6-octahydro-1^5H,1^7H-8-oxa-1(13,15)-pyrido[3',2':7,8][1,5]oxazonino[5,6-a]indola-2(4,2)-thiazola-6(1,3)-pyridazinacycloundecaphane-4-yl)cyclopropane-1-c arboxamide] were 0.71 nM, 4.52 nM, 0.24 nM and 0.92 nM.
